In patent US9896435B2, “N-pyrrolidinyl,N′-pyrazolyl-urea, thiourea, guanidine and cyanoguanidine compounds as TrkA kinase inhibitors” (Array BioPharma Inc., priority 2012, dated 2018):

What was measured:
[1] = target: His-tagged recombinant human TrkA (Homo sapiens (Human), UniProt P04629); assay: TrkA LanthaScreen Eu Kinase Binding Assay; details: averaged IC50; LanthaScreen binding assay of Example A; read-out: TrkA Enzyme IC50
Protocol: TrkA binding activity was determined in a TrkA LanthaScreen™ Eu Kinase Binding Assay. 5 nM His-tagged recombinant human TrkA (6HIS tagged cytoplasmic domain from Invitrogen, Catalog No. PV3144) was incubated with 4 nM Alexa-Fluor® Tracer 236 (Invitrogen Cat. No. PV5592), 2 nM biotinylated anti-His (Invitrogen Cat. No. PV6090), and 2 nM europium-labeled Streptavidin (Invitrogen Cat. No. PV5899), in buffer (25 mM MOPS, pH 7.5, 5 mM MgCl2, 0.005% Triton X-100). Three fold serial dilutions of compounds of the invention in DMSO were added to a final percentage of 2% DMSO. After 60-minute incubation at 22° C., the reaction was measured using the EnVision mutlimode plate reader (PerkinElmer) via TR-FRET dual wavelength detection at […]. The percent of control was calculated using a ratiometric emission factor. The IC50 values were determined by fitting a four parameter model to the percent of control data.
Table A provides averaged IC50 values for compounds of the invention when tested in the assay of Example A, where A represents an averaged IC50 value<100 nM.

[2] = tested on: off-target kinases in the full kinase panel; assay: KinaseProfiler full kinase panel, overall result; type: biochemical; details: for selectivity for inhibiting TrkA versus other kinases in the panel: 10 μM, panel of about 230 kinases; for activity against off-target kinases: concentration of 10 μM
Protocol: (§1) Two representative compounds (Example 2, 14) of the invention were tested for off-target kinase activity at a concentration of 10 μM by Millipore, Inc. in their KinaseProfiler™ service against all the kinases available in their full kinase panel. These compounds were run in duplicate at a concentration of ATP near the Km for each individual kinase according to Millipore's specifications. The results are shown in Table B. Data are reported as percent of control (POC) and are the average of the two replicates.
Such a drug profile would represent a safer approach to treating pain, inflammation, cancer and certain skin diseases than has been previously reported.

CHK2 = CHK2 (Homo sapiens (Human), UniProt O96017); assay: KinaseProfiler off-target kinase profiling; type: biochemical; details: 10 μM, ATP near Km
Protocol: as §1

RIPK2 = RIPK2 (Homo sapiens (Human), UniProt O43353); assay: KinaseProfiler off-target kinase profiling; type: biochemical; details: 10 μM, ATP near Km
Protocol: as §1

ROCK-I = ROCK-I (Homo sapiens (Human), UniProt Q13464); assay: KinaseProfiler off-target kinase profiling; type: biochemical; details: 10 μM, ATP near Km
Protocol: as §1

BLK = assay: KinaseProfiler off-target kinase profiling; type: biochemical; details: 10 μM, ATP near Km
Protocol: as §1

BrSK1 = BrSK1 (Homo sapiens (Human), UniProt Q8TDC3); assay: KinaseProfiler off-target kinase profiling; type: biochemical; details: 10 μM, ATP near Km
Protocol: as §1

CAMK1d = CAMK1d (Homo sapiens (Human), UniProt Q8IU85); assay: KinaseProfiler off-target kinase profiling; type: biochemical; details: 10 μM, ATP near Km
Protocol: as §1

Met = Met (Homo sapiens (Human), UniProt P08581); assay: KinaseProfiler off-target kinase profiling; type: biochemical; details: 10 μM, ATP near Km
Protocol: as §1

CK1delta = CK1delta (Homo sapiens (Human), UniProt P48730); assay: KinaseProfiler off-target kinase profiling; type: biochemical; details: 10 μM, ATP near Km
Protocol: as §1

MRCKalpha = MRCKalpha (Homo sapiens (Human), UniProt Q5VT25); assay: KinaseProfiler off-target kinase profiling; type: biochemical; details: 10 μM, ATP near Km
Protocol: as §1

SGK2 = SGK2 (Homo sapiens (Human), UniProt Q9HBY8); assay: KinaseProfiler off-target kinase profiling; type: biochemical; details: 10 μM, ATP near Km
Protocol: as §1

eEF-2K = eEF-2K (Homo sapiens (Human), UniProt O00418); assay: KinaseProfiler off-target kinase profiling; type: biochemical; details: 10 μM, ATP near Km
Protocol: as §1

PKAC-alpha = PKAC-alpha (Homo sapiens (Human), UniProt P17612); assay: KinaseProfiler off-target kinase profiling; type: biochemical; details: 10 μM, ATP near Km
Protocol: as §1

CDK6/cyclinD3 = CDK6/cyclinD3 (Homo sapiens (Human), UniProt Q00534); assay: KinaseProfiler off-target kinase profiling; type: biochemical; details: 10 μM, ATP near Km
Protocol: as §1

PDGFRbeta = PDGFRbeta (Homo sapiens (Human), UniProt P09619); assay: KinaseProfiler off-target kinase profiling; type: biochemical; details: 10 μM, ATP near Km
Protocol: as §1

ARK5 = ARK5 (Homo sapiens (Human), UniProt O60285); assay: KinaseProfiler off-target kinase profiling; type: biochemical; details: 10 μM, ATP near Km
Protocol: as §1

JAK2 = JAK2 (Homo sapiens (Human), UniProt O60674); assay: KinaseProfiler off-target kinase profiling; type: biochemical; details: 10 μM, ATP near Km
Protocol: as §1

ERK1 = ERK1 (Homo sapiens (Human), UniProt P27361); assay: KinaseProfiler off-target kinase profiling; type: biochemical; details: 10 μM, ATP near Km
Protocol: as §1

PRK2 = PRK2 (Homo sapiens (Human), UniProt Q16513); assay: KinaseProfiler off-target kinase profiling; type: biochemical; details: 10 μM, ATP near Km
Protocol: as §1

HIPK1 = HIPK1 (Homo sapiens (Human), UniProt Q86Z02); assay: KinaseProfiler off-target kinase profiling; type: biochemical; details: 10 μM, ATP near Km
Protocol: as §1

PKCiota = PKCiota (Homo sapiens (Human), UniProt P41743); assay: KinaseProfiler off-target kinase profiling; type: biochemical; details: 10 μM, ATP near Km
Protocol: as §1

IKKbeta = IKKbeta (Homo sapiens (Human), UniProt O14920); assay: KinaseProfiler off-target kinase profiling; type: biochemical; details: 10 μM, ATP near Km
Protocol: as §1

NEK7 = NEK7 (Homo sapiens (Human), UniProt Q8TDX7); assay: KinaseProfiler off-target kinase profiling; type: biochemical; details: 10 μM, ATP near Km
Protocol: as §1

MLK1 = MLK1 (Homo sapiens (Human), UniProt P80192); assay: KinaseProfiler off-target kinase profiling; type: biochemical; details: 10 μM, ATP near Km
Protocol: as §1

JNK2alpha2 = JNK2alpha2 (Homo sapiens (Human), UniProt P45984); assay: KinaseProfiler off-target kinase profiling; type: biochemical; details: 10 μM, ATP near Km
Protocol: as §1

CDK5/p25 = CDK5/p25 (Homo sapiens (Human), UniProt Q00535); assay: KinaseProfiler off-target kinase profiling; type: biochemical; details: 10 μM, ATP near Km
Protocol: as §1

MKK4_m = MKK4_m (Mus musculus (Mouse), UniProt P47809); assay: KinaseProfiler off-target kinase profiling; type: biochemical; details: 10 μM, ATP near Km
Protocol: as §1

PTK6 = PTK6 (Homo sapiens (Human), UniProt Q13882); assay: KinaseProfiler off-target kinase profiling; type: biochemical; details: 10 μM, ATP near Km
Protocol: as §1

SRPK1 = SRPK1 (Homo sapiens (Human), UniProt Q96SB4); assay: KinaseProfiler off-target kinase profiling; type: biochemical; details: 10 μM, ATP near Km
Protocol: as §1

TEC Activated = TEC Activated (Homo sapiens (Human), UniProt P42680); assay: KinaseProfiler off-target kinase profiling; type: biochemical; details: 10 μM, ATP near Km
Protocol: as §1

Plk2 = Plk2 (Homo sapiens (Human), UniProt Q9NYY3); assay: KinaseProfiler off-target kinase profiling; type: biochemical; details: 10 μM, ATP near Km
Protocol: as §1

Sequence of JNK2alpha2 (P45984 whole entry): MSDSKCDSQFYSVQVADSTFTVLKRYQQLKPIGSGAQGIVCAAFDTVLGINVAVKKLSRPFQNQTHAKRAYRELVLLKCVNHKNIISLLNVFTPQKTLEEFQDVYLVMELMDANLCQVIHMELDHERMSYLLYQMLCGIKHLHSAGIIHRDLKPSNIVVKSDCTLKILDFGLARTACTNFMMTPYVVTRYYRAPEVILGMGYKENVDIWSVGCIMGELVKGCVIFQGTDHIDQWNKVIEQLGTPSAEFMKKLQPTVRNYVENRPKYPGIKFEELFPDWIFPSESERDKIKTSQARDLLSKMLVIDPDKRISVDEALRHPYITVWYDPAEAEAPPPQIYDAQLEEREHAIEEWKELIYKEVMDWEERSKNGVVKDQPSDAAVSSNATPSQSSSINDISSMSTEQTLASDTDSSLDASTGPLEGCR
Sequence of IKKbeta (O14920 whole entry): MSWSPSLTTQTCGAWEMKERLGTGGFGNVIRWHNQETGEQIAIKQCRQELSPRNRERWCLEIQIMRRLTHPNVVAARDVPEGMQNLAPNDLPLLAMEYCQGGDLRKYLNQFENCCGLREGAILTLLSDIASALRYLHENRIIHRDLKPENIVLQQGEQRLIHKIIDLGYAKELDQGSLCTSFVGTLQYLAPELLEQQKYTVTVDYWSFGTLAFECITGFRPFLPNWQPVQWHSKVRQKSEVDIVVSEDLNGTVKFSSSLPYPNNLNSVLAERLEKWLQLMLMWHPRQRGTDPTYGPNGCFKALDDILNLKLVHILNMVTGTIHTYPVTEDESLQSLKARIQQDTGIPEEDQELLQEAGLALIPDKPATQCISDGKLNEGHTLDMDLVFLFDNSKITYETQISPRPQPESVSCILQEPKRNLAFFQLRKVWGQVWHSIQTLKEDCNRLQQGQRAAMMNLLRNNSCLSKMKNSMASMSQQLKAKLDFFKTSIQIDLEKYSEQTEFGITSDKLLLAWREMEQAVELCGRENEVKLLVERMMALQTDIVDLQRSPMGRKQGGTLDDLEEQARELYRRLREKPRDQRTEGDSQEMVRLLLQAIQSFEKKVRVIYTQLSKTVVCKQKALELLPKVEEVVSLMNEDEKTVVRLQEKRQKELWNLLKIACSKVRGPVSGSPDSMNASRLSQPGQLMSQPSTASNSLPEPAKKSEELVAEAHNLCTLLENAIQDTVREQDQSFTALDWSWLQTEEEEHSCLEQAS
Sequence of Plk2 (Q9NYY3 whole entry): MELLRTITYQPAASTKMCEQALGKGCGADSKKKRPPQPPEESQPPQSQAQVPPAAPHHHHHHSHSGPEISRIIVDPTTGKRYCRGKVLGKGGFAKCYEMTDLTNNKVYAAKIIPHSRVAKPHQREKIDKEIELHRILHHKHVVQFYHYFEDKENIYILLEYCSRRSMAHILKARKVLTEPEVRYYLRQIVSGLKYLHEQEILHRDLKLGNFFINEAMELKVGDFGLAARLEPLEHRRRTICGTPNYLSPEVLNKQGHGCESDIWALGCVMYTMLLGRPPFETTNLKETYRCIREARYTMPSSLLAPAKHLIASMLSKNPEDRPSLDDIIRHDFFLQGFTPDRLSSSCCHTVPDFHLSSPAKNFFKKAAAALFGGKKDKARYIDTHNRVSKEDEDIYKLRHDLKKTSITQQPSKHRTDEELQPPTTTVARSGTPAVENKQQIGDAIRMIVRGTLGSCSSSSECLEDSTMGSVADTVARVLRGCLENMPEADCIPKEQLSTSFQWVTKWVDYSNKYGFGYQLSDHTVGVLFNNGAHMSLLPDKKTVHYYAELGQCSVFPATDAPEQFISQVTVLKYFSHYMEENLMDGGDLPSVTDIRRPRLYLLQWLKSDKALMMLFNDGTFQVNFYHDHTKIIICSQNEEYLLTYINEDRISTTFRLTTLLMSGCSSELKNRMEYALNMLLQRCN
Sequence of ARK5 (O60285 whole entry): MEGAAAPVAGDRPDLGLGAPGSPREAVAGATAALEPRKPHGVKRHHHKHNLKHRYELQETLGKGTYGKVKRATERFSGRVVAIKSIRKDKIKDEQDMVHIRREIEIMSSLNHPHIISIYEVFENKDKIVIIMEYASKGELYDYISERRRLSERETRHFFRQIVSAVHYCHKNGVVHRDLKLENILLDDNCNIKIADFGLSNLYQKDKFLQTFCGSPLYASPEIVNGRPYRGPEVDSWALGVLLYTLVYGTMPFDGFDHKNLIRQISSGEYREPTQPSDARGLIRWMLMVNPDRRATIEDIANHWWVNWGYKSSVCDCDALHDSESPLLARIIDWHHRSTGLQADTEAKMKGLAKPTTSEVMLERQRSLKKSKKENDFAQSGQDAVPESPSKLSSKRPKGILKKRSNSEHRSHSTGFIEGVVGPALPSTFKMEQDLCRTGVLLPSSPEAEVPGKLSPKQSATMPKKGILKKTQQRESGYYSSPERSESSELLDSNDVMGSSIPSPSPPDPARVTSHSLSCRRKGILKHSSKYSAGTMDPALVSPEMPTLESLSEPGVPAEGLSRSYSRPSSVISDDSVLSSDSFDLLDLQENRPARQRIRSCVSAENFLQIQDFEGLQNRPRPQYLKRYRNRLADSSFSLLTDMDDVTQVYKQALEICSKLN
Sequence of BrSK1 (Q8TDC3 whole entry): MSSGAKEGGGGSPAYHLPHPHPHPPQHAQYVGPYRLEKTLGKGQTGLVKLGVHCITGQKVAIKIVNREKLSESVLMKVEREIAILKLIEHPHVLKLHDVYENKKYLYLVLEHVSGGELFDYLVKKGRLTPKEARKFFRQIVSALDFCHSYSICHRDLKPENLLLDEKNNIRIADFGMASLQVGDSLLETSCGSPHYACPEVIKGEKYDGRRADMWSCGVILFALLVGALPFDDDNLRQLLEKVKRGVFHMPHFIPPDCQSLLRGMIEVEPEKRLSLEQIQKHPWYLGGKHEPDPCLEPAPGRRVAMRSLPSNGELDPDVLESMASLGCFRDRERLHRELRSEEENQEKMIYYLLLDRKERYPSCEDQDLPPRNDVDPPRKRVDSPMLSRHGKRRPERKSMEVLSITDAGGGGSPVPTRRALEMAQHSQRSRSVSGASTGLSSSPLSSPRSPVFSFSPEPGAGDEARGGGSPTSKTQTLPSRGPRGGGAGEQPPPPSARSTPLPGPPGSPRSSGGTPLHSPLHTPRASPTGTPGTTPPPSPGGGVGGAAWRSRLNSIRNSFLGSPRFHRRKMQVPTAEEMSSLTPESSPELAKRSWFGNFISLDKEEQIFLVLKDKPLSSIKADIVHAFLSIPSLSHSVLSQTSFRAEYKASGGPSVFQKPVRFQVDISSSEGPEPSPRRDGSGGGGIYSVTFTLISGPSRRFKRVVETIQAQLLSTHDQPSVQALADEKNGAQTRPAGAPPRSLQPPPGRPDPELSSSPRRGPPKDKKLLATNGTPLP
Sequence of CAMK1d (Q8IU85 whole entry): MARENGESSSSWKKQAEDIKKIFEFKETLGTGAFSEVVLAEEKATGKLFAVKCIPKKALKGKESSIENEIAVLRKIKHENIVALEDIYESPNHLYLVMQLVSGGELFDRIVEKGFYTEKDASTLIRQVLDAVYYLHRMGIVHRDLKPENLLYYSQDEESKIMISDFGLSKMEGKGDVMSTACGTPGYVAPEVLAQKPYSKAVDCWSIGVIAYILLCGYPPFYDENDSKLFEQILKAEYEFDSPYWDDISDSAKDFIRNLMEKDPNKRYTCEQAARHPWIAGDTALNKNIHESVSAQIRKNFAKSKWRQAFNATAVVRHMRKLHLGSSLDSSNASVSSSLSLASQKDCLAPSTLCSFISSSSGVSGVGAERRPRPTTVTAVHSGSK
Sequence of HIPK1 (Q86Z02 whole entry): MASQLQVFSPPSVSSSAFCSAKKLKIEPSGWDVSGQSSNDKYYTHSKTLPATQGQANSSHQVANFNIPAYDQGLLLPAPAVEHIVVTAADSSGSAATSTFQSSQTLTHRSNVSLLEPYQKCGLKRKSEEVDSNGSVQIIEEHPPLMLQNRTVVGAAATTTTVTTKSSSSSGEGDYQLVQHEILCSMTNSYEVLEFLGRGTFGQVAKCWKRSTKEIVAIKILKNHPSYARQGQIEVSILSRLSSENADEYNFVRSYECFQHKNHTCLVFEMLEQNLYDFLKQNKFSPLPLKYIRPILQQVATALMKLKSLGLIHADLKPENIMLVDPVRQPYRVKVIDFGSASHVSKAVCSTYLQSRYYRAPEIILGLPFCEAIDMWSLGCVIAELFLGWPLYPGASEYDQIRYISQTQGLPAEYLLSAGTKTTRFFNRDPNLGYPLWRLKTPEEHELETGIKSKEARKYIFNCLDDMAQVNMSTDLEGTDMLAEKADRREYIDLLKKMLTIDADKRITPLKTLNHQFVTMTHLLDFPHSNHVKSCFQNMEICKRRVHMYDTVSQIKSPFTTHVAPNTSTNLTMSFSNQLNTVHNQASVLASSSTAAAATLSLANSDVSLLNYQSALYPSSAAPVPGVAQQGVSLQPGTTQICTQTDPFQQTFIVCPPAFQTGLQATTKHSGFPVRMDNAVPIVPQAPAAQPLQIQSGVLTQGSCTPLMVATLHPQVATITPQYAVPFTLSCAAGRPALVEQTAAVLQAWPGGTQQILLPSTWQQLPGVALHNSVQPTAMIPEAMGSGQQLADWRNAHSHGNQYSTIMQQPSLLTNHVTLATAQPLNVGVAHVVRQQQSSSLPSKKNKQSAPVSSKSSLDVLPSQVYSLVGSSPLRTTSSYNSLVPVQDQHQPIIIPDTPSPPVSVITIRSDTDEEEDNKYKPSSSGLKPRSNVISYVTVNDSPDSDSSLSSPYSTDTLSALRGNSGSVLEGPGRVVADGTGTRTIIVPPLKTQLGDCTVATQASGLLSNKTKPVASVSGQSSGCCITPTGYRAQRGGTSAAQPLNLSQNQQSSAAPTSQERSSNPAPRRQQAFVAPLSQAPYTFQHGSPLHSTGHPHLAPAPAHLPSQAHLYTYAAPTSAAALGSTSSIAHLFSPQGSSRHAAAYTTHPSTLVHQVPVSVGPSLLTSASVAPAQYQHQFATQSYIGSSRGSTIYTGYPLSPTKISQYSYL

COCCN1C[C@@H](NC(=O)Nc2c(C)c(-c3ccnc(C)c3)nn2-c2ccccc2)[C@H](c2ccc(F)c(F)c2)C1 [Example 2, 1-((3S,4R)-4-(3,4-difluorophenyl)-1-(2-methoxyethyl)pyrrolidin-3-yl)-3-(4-methyl-3-(2-methylpyridin-4-yl)-1-phenyl-1H-pyrazol-5-yl)urea]
IC50 [1]: < 100 nM
selectivity for inhibiting TrkA versus other kinases in the panel [2]: remarkable and unexpected selectivity
activity against off-target kinases [2]: largely inactive
Avg POC (CHK2): 101 POC
Avg POC (RIPK2): 105.5 POC
Avg POC (ROCK-I): 98 POC
Avg POC (BLK): 92 POC
Avg POC (BrSK1): 104 POC
Avg POC (CAMK1d): 100 POC
Avg POC (Met): 106 POC
Avg POC (CK1delta): 108 POC
Avg POC (MRCKalpha): 113 POC
Avg POC (SGK2): 99 POC
Avg POC (eEF-2K): 98.5 POC
Avg POC (PKAC-alpha): 94.5 POC
Avg POC (CDK6/cyclinD3): 96 POC
Avg POC (PDGFRbeta): 108.5 POC
Avg POC (ARK5): 89 POC
Avg POC (JAK2): 112.5 POC
Avg POC (ERK1): 103 POC
Avg POC (PRK2): 105 POC
Avg POC (HIPK1): 96.5 POC
Avg POC (PKCiota): 95 POC
Avg POC (IKKbeta): 87 POC
Avg POC (NEK7): 117 POC
Avg POC (MLK1): 103.5 POC
Avg POC (JNK2alpha2): 100 POC
Avg POC (CDK5/p25): 104 POC
Avg POC (MKK4_m): 115 POC
Avg POC (PTK6): 101 POC
Avg POC (SRPK1): 97.5 POC
Avg POC (TEC Activated): 107 POC
Avg POC (Plk2): 99.5 POC

COCCN1C[C@@H](NC(=O)Nc2c(C)c(-c3cnc(C)nc3)nn2-c2ccccc2)[C@H](c2cc(F)cc(F)c2)C1 [Example 14, 1-((3S,4R)-4-(3,5-difluorophenyl)-1-(2-methoxyethyl)pyrrolidin-3-yl)-3-(4-methyl-3-(2-methylpyrimidin-5-yl)-1-phenyl-1H-pyrazol-5-yl)urea]
IC50 [1]: < 100 nM
selectivity for inhibiting TrkA versus other kinases in the panel [2]: remarkable and unexpected selectivity
activity against off-target kinases [2]: largely inactive
Avg POC (CHK2): 97.5 POC
Avg POC (RIPK2): 93.5 POC
Avg POC (ROCK-I): 109.5 POC
Avg POC (BLK): 91.5 POC
Avg POC (BrSK1): 94 POC
Avg POC (CAMK1d): 103.5 POC
Avg POC (Met): 96.5 POC
Avg POC (CK1delta): 108.5 POC
Avg POC (MRCKalpha): 124.5 POC
Avg POC (SGK2): 100 POC
Avg POC (eEF-2K): 103 POC
Avg POC (PKAC-alpha): 109 POC
Avg POC (CDK6/cyclinD3): 99.5 POC
Avg POC (PDGFRbeta): 120 POC
Avg POC (ARK5): 85 POC
Avg POC (JAK2): 109 POC
Avg POC (ERK1): 78.5 POC
Avg POC (PRK2): 106.5 POC
Avg POC (HIPK1): 97.5 POC
Avg POC (PKCiota): 104.5 POC
Avg POC (IKKbeta): 99 POC
Avg POC (NEK7): 106.5 POC
Avg POC (MLK1): 102 POC
Avg POC (JNK2alpha2): 97 POC
Avg POC (CDK5/p25): 99 POC
Avg POC (MKK4_m): 116.5 POC
Avg POC (PTK6): 108.5 POC
Avg POC (SRPK1): 109.5 POC
Avg POC (TEC Activated): 83.5 POC
Avg POC (Plk2): 102 POC
